Laboratory results as given in patent publication US9067913B2, “Fumigillol type compounds and methods of making and using same” (Zafgen, Inc., priority 2010, dated 2015).
Marks after values point to notes of the source that are not given here.

What was measured:
MetAP2 [1] = molecular target: T1, MetAP2 (Homo sapiens, UniProt P50579); assay: MetAP2 enzyme assay; type: biochemical; settings: for inhibition at 0.05 µM: 50 nM; for inhibition at 0.2 µM: 200 nM
Description: Compound A was tested in a MetAP2 enzyme assay. Table 1 indicates the inhibition results for various concentrations: […]

MetAP2 [2] = molecular target: T1, MetAP2; assay: cell based assay, inhibition of MetAP2
Description: In a cell based assay, the inhibition of MetAP2 was <10 nM.

[3] = weight loss study in obese mice (high-fat diet induced), Example 2; type: in vivo, C57BL/6NTac mice; settings: 1.0 mg/kg in 10% gelucire in deionised water, once a day for 7 days, 60% fat diet
Description: A weight loss study was conducted in obese mice. The mice in this study were not genetically obese, but prior to and during the study, obesity was induced by a high-fat diet. Twelve week-old C57BL/6NTac mice, maintained on a 60% fat diet prior to and during the study, were separated into seven groups, eight animals per group. Average body weight of the mice was approximately 47 g at the start of the study.
Mice were administered 1.0 mg/kg of compound A in 10% gelucire in deionised water. Mice received administrations once a day for 7 days. The one week weight loss was 11.9%.

[4] = Study A: 7 day screen, weight loss in mice on 45% kcal fat diet; type: in vivo, C57BL/6 mice
Description: Three studies were conducted using 18-20 week old C57BL/6 mice. Study A was a 7 day screen that included 18-20 week old C57BL/6 mice that were provided a 45% kcal fat diet for 14 weeks, and treated with either 10% Gelucire in water or the same vehicle containing an amount of compound A to deliver a dose of 1 mg/kg dosed daily for 7 days.

[5] = Study B: 10 day study, weight loss in mice on 60% kcal fat diet; type: in vivo, C57BL/6 mice; settings: PO 3 mg/kg, 10% DMSO
Description: Study B was a 10 day study that included 20 week old C57BL/6 mice on 60% kcal fat diet for 14 weeks treated with either 10% DMSO or the same vehicle containing an amount of drug to deliver a dose of 3 mg/kg of compound A for 10 days. FIG. 2 depicts the 7-day PO efficacy at 3 mg/kg of compound A.

[6] = Example 4: body weight loss compared to vehicle, 3 mg/kg for 10 days; type: in vivo, C57BL/6 mice; settings: compared with compound (i) and compound (ii)
Description: 20 week old C57BL/6 mice on 60% kcal fat diet for 14 weeks treated with either 10% DMSO or the same vehicle containing an amount of drug to deliver a dose of 3 mg/kg of compound (ii) (as identified above), compound (i) [fumigillol], and compound A for 10 days. FIG. 3 indicates the body weight loss compared to vehicle for each compound.

MetAP2 [7] = assay: Example 4: testes biomarker, N-terminal peptide of mouse thioredoxin (SEQ ID NO. 1) by LC-MS/MS; type: in vivo; settings: 3 mg/kg for 10 days, testes harvested at end of study
Text: At the end of the study testes from the mice were harvested, homogenized and digested with endoproteinase Glu-C.

[8] = Study C: 10 day study, weight loss in mice on 60% kcal fat diet; type: in vivo, C57BL/6 mice; settings: 10% DMSO
Description: Study C was a 10 day study that included 20 week old C57BL/6 mice on 60% kcal fat diet for 14 weeks treated with either 10% DMSO or the same vehicle containing an amount of drug to deliver an oral dose of 1 mg/kg or 3 mg/kg of the compound 6-O-(4-dimethylaminoethoxy)cinnamoyl fumagillol (dimethyl analogue) for 10 days.

T1 sequence (P50579 whole entry, species assumed): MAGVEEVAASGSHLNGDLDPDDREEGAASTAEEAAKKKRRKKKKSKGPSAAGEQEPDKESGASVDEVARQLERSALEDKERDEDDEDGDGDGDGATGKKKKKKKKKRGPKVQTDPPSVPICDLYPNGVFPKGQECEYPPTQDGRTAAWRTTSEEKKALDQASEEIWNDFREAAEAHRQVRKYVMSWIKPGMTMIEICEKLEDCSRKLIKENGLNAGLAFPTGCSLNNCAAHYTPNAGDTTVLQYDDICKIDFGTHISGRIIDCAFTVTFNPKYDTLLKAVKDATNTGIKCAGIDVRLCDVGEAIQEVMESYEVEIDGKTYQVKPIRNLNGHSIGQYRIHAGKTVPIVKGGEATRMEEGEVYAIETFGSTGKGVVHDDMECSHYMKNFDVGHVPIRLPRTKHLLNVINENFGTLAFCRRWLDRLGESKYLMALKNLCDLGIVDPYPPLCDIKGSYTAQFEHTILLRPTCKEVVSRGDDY

Row | SMILES | inhibition at 0.05 µM (MetAP2 [1]; 1 hr) [%] | inhibition at 0.2 µM (MetAP2 [1]; 1 hr) [%] | inhibition at 0.05 µM (MetAP2 [1]; 2 hr) [%] | inhibition at 0.2 µM (MetAP2 [1]; 2 hr) [%] | inhibition at 0.05 µM (MetAP2 [1]; 4 hr) [%] | inhibition at 0.2 µM (MetAP2 [1]; 4 hr) [%] | IC50 (MetAP2 [2]) [nM] | one week weight loss [3] [%] | weight loss at day 7 ([4]; PO 1 mg/kg daily, Study A, 10% Gelucire in water, 45% kcal fat diet) [%^a] | potency dosed orally as compared to 6-O-(4-dimethylaminoethoxy)cinnamoyl fumagillol ([4]; day 7 weight loss, studies A, B, C compared) [times] | weight loss at day 7 [5] [%^b] | weight loss potency (FIG. 3) [6] | availability to the testes tissue (concentration of SEQ ID NO. 1, FIG. 4) (MetAP2 [7]) | weight loss at day 7 ([8]; PO 1 mg/kg) [%^c] | weight loss at day 7 ([8]; PO 3 mg/kg) [%^c]
1 | CCN(CC)CCOc1ccc(/C=C/C(=O)O[C@@H]2CC[C@]3(CO3)[C@@H]([C@@]3(C)O[C@@H]3CC=C(C)C)[C@@H]2OC)cc1 [Compound A] | 42 | 100 | 45 | 100 | 71 | 100 | < 10 | 11.9 | 12 | ≥ 3 | 13 | comparable weight loss potency | not as available to the testes tissue as compared to the other tested compounds | – | –
2 | CO[C@@H]1[C@H](OC(=O)C=Cc2ccc(OCCN(C)C)cc2)CC[C@]2(CO2)[C@H]1[C@@]1(C)O[C@@H]1CC=C(C)C [dimethyl analogue, 6-O-(4-dimethylaminoethoxy)cinnamoyl fumagillol] | – | – | – | – | – | – | – | – | – | – | – | – | – | 1.1 | 11
